# Like-named read-outs stand apart in the source and are kept apart here. Starred links: 1 amine or outer side, 2 acyl side, 3 side chain; linkers in the order of their positions; H or OH if unused. Positions of bridges follow the written chain, without caps; N, C: chain ends. Non-standard residues stand in square brackets, D forms with d. Residues, ends and D or L forms follow the SMILES beside them. *: point of attachment. hTyr(3S-OH,4S-OH,3'-OSO3H) = N[C@H](C(=O)O)[C@H](O)[C@@H](O)c1ccc(O)c(OS(=O)(=O)O)c1; pTerphenylCO(4''-OnC5H11) = CCCCCOc1ccc(-c2ccc(-c3ccc(C(=O)*)cc3)cc2)cc1; Orn(4R-OH,5R-OH) = O=C([C@H](C[C@@H](O)[C@@H](O)N[*:3])N[*:1])[*:2]; hTyr(3S-OH,4S-OH) = N[C@H](C(=O)O)[C@H](O)[C@@H](O)c1ccc(O)cc1; Pro(3S-OH,4S-Me) = C[C@H]1CN[C@H](C(=O)O)[C@H]1O; X1 = CCCCCOc1ccc(-c2cc(-c3ccc(C(=O)*)cc3)no2)cc1; Gln(3R-OH) = NC(=O)C[C@@H](O)[C@H](N)C(=O)O; Hyp = O=C(O)[C@@H]1C[C@@H](O)CN1
# Experiments:
# VeroE6/TMPRSS2 cells = details: read-out: Cell Viability CC50, essentially in the same experimental condition, ref Ohashi et al. [29]; cited from earlier work
# SARS-CoV-2 Wuhan strain [1] = format: cell-based
# SARS-CoV-2 Wuhan strain [2] = details: VeroE6/TMPRSS2 cells, essentially in the same experimental condition; ref Ohashi et al. [29]; read-out: SARS-CoV-2 RNA IC50; cited from earlier work
# [3] = Cell viability (cell-counting kit-8, WST-8) in VeroE6/TMPRSS2 cells; format: cell-based; details: African green monkey, 24 h with compound
# [4] = system: Dengue virus serotype 2 (DENV-2); design: method as in ref [12] = [12]; details: Vero cells; ref [12]; read-out: IC50, DENV-2 infection; cited from earlier work
# SARS-CoV-2 Wuhan strain [5] = assay: microbe, parasite or virus in culture; format: cell-based; details: VeroE6/TMPRSS2 cells; for IC50: Severe acute respiratory syndrome coronavirus 2, Wuhan strain, MOI 0.003, extracellular viral RNA at 24 h
# Zika virus (ZIKV) = system: Zika virus (ZIKV); design: method as in ref [14] = [14]; details: Vero cells; ref [14]; read-out: IC50, ZIKV infection; cited from earlier work
# SARS-CoV-2 = details: Vero cells, read-out: IC50, SARS-CoV-2 infection, cited from earlier work
# [6] = system: Enterovirus 71 (EV71) replicon; design: method as in ref [10] = [10]; details: Vero cells, estimated; ref [10]; read-out: IC50 to luciferase carrying EV71 replicon; cited from earlier work
# 3CLpro = system: 3CLpro; design: method as in ref [33] = [33]; details: in vitro; ref [33]; read-out: IC50, 3CLpro enzymatic activity; cited from earlier work
# [7] = system: Chikungunya virus (CHIKV); design: method as in ref [11] = [11]; details: U2OS or BHK-21 cells; ref [11]; read-out: IC50, CHIKV infection; cited from earlier work
# helicase of DENV-2 = target: helicase of DENV-2; design: method as in ref [13] = [13]; details: in vitro; ref [13]; read-out: IC50, DENV-2 helicase enzymatic activity; cited from earlier work
# [8] = design: method as in ref [7] = [7]; details: human adults, 100 mg daily; ref [7]; cited from earlier work
# SARS-CoV-2 Wuhan strain [9] = assay: microbe, parasite or virus in culture; format: cell-based; details: Severe acute respiratory syndrome coronavirus 2, 24 h, Calu-3 cells, 3 h inoculation plus 21 h, read-out: SARS-CoV-2 RNA IC50
# [10] = Cell viability (cell-counting kit-8, WST-8) in Calu-3 cells; format: cell-based; details: human, 24 h with compound
SMILES,CC50 (VeroE6/TMPRSS2 cells),"effect on viral RNA levels, compound added at post-entry phase (SARS-CoV-2 Wuhan strain [1])","effect on viral RNA levels, compound added at virus entry phase (SARS-CoV-2 Wuhan strain [1])",IC50 (SARS-CoV-2 Wuhan strain [2]),CC50 at 24 h [3],IC50 [4],IC50 (SARS-CoV-2 Wuhan strain [5]),IC50 (Zika virus (ZIKV)),also measured
CCC(CC)COC(=O)[C@H](C)N[P@](=O)(OC[C@H]1O[C@@](C#N)(c2ccc3c(N)ncnn23)[C@H](O)[C@@H]1O)Oc1ccccc1 [Remdesivir],> 64 µM,remarkable antiviral activity,no inhibitory effect,1.58 µM,,,,,
COc1ccc2cc1Oc1ccc(cc1)C[C@H]1c3c(cc4c(c3Oc3cc5c(cc3OC)CCN(C)[C@@H]5C2)OCO4)CCN1C [Cepharanthine],25.1 µM,lower viral activity,considerable inhibition,0.35 µM,,,,,
CC[C@H](C)C[C@H](C)CCCCCCCCC(=O)N[C@H]1C[C@@H](O)[C@@H](NCCN)NC(=O)[C@@H]2[C@@H](O)CCN2C(=O)[C@H]([C@H](O)CCN)NC(=O)[C@H]([C@H](O)[C@@H](O)c2ccc(O)cc2)NC(=O)[C@@H]2C[C@@H](O)CN2C(=O)[C@H]([C@@H](C)O)NC1=O [Caspofungin],,,,,> 64 µM,20.8 µM,> 64 µM,75.8 µM,effect on viral RNA levels (in words) (SARS-CoV-2 Wuhan strain [5]; up to 64 µM): did not show any antiviral effect
"CCCCCOc1ccc(-c2ccc(-c3ccc(C(=O)N[C@H]4C[C@@H](O)[C@@H](O)NC(=O)[C@@H]5[C@@H](O)[C@@H](C)CN5C(=O)[C@H]([C@@H](C)O)NC(=O)[C@H]([C@H](O)[C@@H](O)c5ccc(O)cc5)NC(=O)[C@@H]5C[C@@H](O)CN5C(=O)[C@H]([C@@H](C)O)NC4=O)cc3)cc2)cc1 [Anidulafungin] ({pTerphenylCO(4''-OnC5H11)}-[Orn(4R-OH,5R-OH)]T[Hyp][hTyr(3S-OH,4S-OH)]T[Pro(3S-OH,4S-Me)]; lactam 1-C)",,,,,24.6 µM,3.24 µM,7.09 µM,2.08 µM,IC50 (SARS-CoV-2; ref [16]): 4.64 µM
"CCCCCOc1ccc(-c2cc(-c3ccc(C(=O)N[C@H]4C[C@@H](O)[C@@H](O)NC(=O)[C@@H]5[C@@H](O)[C@@H](C)CN5C(=O)[C@H]([C@H](O)CC(N)=O)NC(=O)[C@H]([C@H](O)[C@@H](O)c5ccc(O)c(OS(=O)(=O)O)c5)NC(=O)[C@@H]5C[C@@H](O)CN5C(=O)[C@H]([C@@H](C)O)NC4=O)cc3)no2)cc1 [Micafungin] (X1-[Orn(4R-OH,5R-OH)]T[Hyp][hTyr(3S-OH,4S-OH,3'-OSO3H)][Gln(3R-OH)][Pro(3S-OH,4S-Me)]; lactam 1-C)",,,,,> 64 µM,10.2 µM,26.1 µM,7.35 µM,IC50 [6]: 5 to 8 µM; IC50 (3CLpro): 47.6 µM; IC50 (SARS-CoV-2; ref [15]): 5.5 to 12.9 µM; selectivity index (SI = CC50/IC50) (SARS-CoV-2 Wuhan strain [5]): > 2.45; IC50 [7]: 20.6 µM; IC50 (helicase of DENV-2): 4.98 µM; half-life [8]: 11 to 17 h; IC50 (SARS-CoV-2 Wuhan strain [9]): 55.3 µM; CC50 at 24 h [10]: > 64 µM

# Source: paper PMC9958940 (Viruses, 2023)
